Source: ChEMBL document CHEMBL1146800, “Structure-based design of amidinophenylurea-derivatives for factor VIIa inhibition” (Bioorg Med Chem Lett, 2004)

Assays:
Coagulation factor VII = target: T1, Coagulation factor VII (Homo sapiens, UniProt P08709); test: In vitro inhibition of human coagulation factor VIIa
T1 sequence (P08709 whole entry): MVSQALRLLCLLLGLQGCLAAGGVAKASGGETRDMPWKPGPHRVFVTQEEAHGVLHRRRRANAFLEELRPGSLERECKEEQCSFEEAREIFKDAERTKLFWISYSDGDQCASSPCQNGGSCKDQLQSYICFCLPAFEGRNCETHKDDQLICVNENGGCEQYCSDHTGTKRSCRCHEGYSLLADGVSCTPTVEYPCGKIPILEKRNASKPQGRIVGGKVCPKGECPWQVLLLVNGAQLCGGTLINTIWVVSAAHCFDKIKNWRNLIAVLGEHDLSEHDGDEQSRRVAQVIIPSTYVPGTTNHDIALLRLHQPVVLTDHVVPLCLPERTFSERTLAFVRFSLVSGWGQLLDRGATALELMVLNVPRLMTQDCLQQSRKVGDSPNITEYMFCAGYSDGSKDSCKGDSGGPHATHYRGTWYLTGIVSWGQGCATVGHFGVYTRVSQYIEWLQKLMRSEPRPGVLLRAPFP

Coagulation factor X = Coagulation factor X (Homo sapiens, UniProt P00742); test: In vitro inhibition of coagulation factor X
Coagulation factor X, sequence (P00742 41-179 limits assumed): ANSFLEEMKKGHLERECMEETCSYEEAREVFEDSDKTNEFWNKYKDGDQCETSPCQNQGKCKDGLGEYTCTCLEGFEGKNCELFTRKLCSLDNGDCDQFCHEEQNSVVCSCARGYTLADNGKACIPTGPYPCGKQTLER
Coagulation factor X, sequence (P00742 235-488 limits assumed): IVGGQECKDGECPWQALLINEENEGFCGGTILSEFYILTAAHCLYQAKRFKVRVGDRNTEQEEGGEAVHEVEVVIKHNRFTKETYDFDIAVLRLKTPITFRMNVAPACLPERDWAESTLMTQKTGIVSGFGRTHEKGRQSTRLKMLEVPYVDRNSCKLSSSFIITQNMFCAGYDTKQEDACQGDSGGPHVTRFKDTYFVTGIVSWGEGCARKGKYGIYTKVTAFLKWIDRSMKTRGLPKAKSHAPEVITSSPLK

Prothrombin = Prothrombin (Homo sapiens, UniProt P00734); test: In vitro inhibition of thrombin

Ki (Coagulation factor VII) [µM]	Ki (Coagulation factor X) [µM]	Ki (Prothrombin) [µM]	SMILES
0.133			CC(NC(=O)CNC(=O)Nc1ccc(C(=N)N)cc1)c1ccc(OCc2ccccc2)cc1 (stereo not given)
7			C[C@@H](NC(=O)CNC(=O)Nc1ccc(C(=N)N)cc1)c1ccc2ccccc2c1
0.19			CC(NC(=O)CNC(=O)Nc1ccc(C(=N)N)cc1)c1ccc(Cc2ccccc2)cc1 (stereo not given)
	> 10	0.5	COC(=O)c1cc(C(C)NC(=O)CNC(=O)Nc2ccc(C(=N)N)cc2)ccc1OCc1ccccc1 (stereo not given)
0.142	> 10	3.2	CC(NC(=O)CNC(=O)Nc1ccc(C(=N)N)cc1)c1ccc(N2CCOCC2)cc1 (stereo not given)
0.02	> 10	12.1	CC(NC(=O)CNC(=O)Nc1ccc(C(=N)N)cc1)c1ccc(C(=O)Nc2ccccc2)cc1 (stereo not given)
0.023	> 10	2.3	CC(NC(=O)CNC(=O)Nc1ccc(C(=N)N)cc1)c1ccc(OCc2cccc(Cl)c2)cc1 (stereo not given)
0.156	> 10	6.76	C[C@H](NC(=O)CNC(=O)Nc1ccc(C(=N)N)cc1)c1ccc(Br)cc1
0.078	> 10	9.1	CC(NC(=O)CNC(=O)Nc1ccc(C(=N)N)cc1)c1ccc(Oc2ccccc2)cc1 (stereo not given)
0.196	> 10	> 50	CC(=O)Nc1ccc(C(C)NC(=O)CNC(=O)Nc2ccc(C(=N)N)cc2)cc1 (stereo not given)
0.03	> 10	1.9	CC(NC(=O)CNC(=O)Nc1ccc(C(=N)N)cc1)c1ccc(N2CCOCC2)c(C(F)(F)F)c1 (stereo not given)
0.047	> 10	14.5	CC(NC(=O)CNC(=O)Nc1ccc(C(=N)N)cc1)c1ccc(NC(=O)C2CC2)cc1 (stereo not given)
	6.23	3.18	C[C@H](NC(=O)CNC(=O)Nc1ccc(C(=N)N)cc1)c1ccc2ccccc2c1
0.034	4.6	14.8	CC(NC(=O)CNC(=O)Nc1ccc(C(=N)N)cc1)c1ccc(NC(=O)c2ccccc2)cc1 (stereo not given)
0.077			CC(NC(=O)CNC(=O)Nc1ccc(C(=N)N)cc1)c1ccc(Cl)c(Cl)c1 (stereo not given)
0.015	> 10	0.65	CC(NC(=O)CNC(=O)Nc1ccc(C(=N)N)cc1)c1ccc(N2CCOCC2)c(Br)c1 (stereo not given)
	10.7	9.8	COc1ccc(Oc2ccc(C(C)NC(=O)CNC(=O)Nc3ccc(C(=N)N)cc3)cc2)cc1 (stereo not given)
0.256			CC(NC(=O)CNC(=O)Nc1ccc(C(=N)N)cc1)c1cccc(OCc2ccccc2)c1 (stereo not given)
0.026	> 10	10.9	Cc1cccc(C(=O)Nc2ccc(C(C)NC(=O)CNC(=O)Nc3ccc(C(=N)N)cc3)cc2)c1 (stereo not given)
	> 10	68.5	CC(NC(=O)CNC(=O)Nc1ccc(C(=N)N)cc1)c1ccc(NC(=O)C2CCNCC2)cc1 (stereo not given)
	14.5		N=C(N)c1ccc(NC(=O)NCC(=O)NCc2ccc(Cl)c(Cl)c2)cc1
0.043	> 10	11.9	CC(NC(=O)CNC(=O)Nc1ccc(C(=N)N)cc1)c1ccc(C(=O)Nc2cccc(Oc3ccccc3)c2)cc1 (stereo not given)
	> 10	33.2	CC(NC(=O)CNC(=O)Nc1ccc(C(=N)N)cc1)c1ccc(NC(=O)c2cccc(Oc3ccccc3)c2)cc1 (stereo not given)
0.02	> 10	2.3	COc1cccc(COc2ccc(C(C)NC(=O)CNC(=O)Nc3ccc(C(=N)N)cc3)cc2)c1 (stereo not given)
